Reference: article PMC8293625, “HLA class-I-peptide stability mediates CD8^+ T cell immunodominance hierarchies and facilitates HLA-associated immune control of HIV” (Cell Reports, 2021)
Where two headings read alike, the source gives them in different places.

Tests used:
HLA-A*0301 = HLA-A*0301 (Homo sapiens, UniProt P04439); test: Cell-based HLA class I-peptide concentration-based stability assay (TAP-deficient mono-allelic 721.221 cells); conditions: HLA A*03 mono-allelic TAP-deficient 721.221 cells, relative anti-HLA MFI; for Relative HLA MFI (10 uM): peptide 10 uM; for Relative HLA MFI (100 uM): peptide 100 uM
Experimental: (§1) Controls without peptide, but the corresponding concentration of DMSO, were performed in parallel.

[1] = tested on: HLA class-I alleles A*0101, A*0201, A*0301, A*2402, B*0702, B*0801, B*1402, B*1501, B*2705, B*3501, B*3901, B*4001, B*4402, B*5201, B*5701, B*5801, B*8101 …; type: cell-based, human; conditions: relative anti-HLA MFI; for Relative HLA MFI (10 uM): peptide 10 uM; for Relative HLA MFI (100 uM): peptide 100 uM
HLA-B*5701 = HLA-B*5701 (Homo sapiens, UniProt P01889, D201E/D98Y/E176V/E187L/E204Q/E69M/E70A/G107R/I90N/K202T/L105A/L119I/N104I/N87E/Q89R/Q94S/R106L/R155S/R180L/R86G/S101N/S121V/S35A/S48A/T118I/V36M/Y140S/Y91M); test: Cell-based HLA class I-peptide concentration-based stability assay (TAP-deficient mono-allelic 721.221 cells); conditions: section B*57, TAP-deficient mono-allelic 721.221 cells, relative anti-HLA MFI; for Relative HLA MFI (10 uM): peptide 10 uM; for Relative HLA MFI (100 uM): peptide 100 uM
Experimental: as §1

HLA-B*0702 = HLA-B*0702 (Homo sapiens, UniProt P01889); test: as above; conditions: HLA B*07 mono-allelic TAP-deficient 721.221 cells, relative anti-HLA MFI; for Relative HLA MFI (10 uM): peptide 10 uM; for Relative HLA MFI (100 uM): peptide 100 uM
Experimental: as §1

[2] = HLA A*02 mono-allelic TAP-deficient 721.221 cells
[3] = HLA B*08 mono-allelic TAP-deficient 721.221 cells
[4] = HLA B*15 mono-allelic TAP-deficient 721.221 cells
[5] = HLA B*39 mono-allelic TAP-deficient 721.221 cells
[6] = HLA B*35 mono-allelic TAP-deficient 721.221 cells
[7] = HLA B*40 mono-allelic TAP-deficient 721.221 cells
[8] = HLA B*27 mono-allelic TAP-deficient 721.221 cells

Row | Sequence | Relative HLA MFI (10 uM) (HLA-B*5701) | Relative HLA MFI (100 uM) (HLA-B*5701) | Relative HLA MFI (10 uM) (HLA-B*0702) | Relative HLA MFI (100 uM) (HLA-B*0702) | other results
1 | AIFQSSMTK [ATK9] | – | – | – | – | Relative HLA MFI (10 uM) (HLA-A*0301): 0.3479; Relative HLA MFI (100 uM) (HLA-A*0301): 0.6619
2 | AIIRILQQL [AL9] | 0 | 0.004343 | – | – | Relative HLA MFI (10 uM) [1, 2]: 0.2439; Relative HLA MFI (100 uM) [1, 2]: 0.5341
3 | AVDLSHFLK [ALK9] | – | – | – | – | Relative HLA MFI (10 uM) (HLA-A*0301): 0.274; Relative HLA MFI (100 uM) (HLA-A*0301): 0.7814
4 | AVFIHNFKRK [AK10] | – | – | – | – | Relative HLA MFI (10 uM) (HLA-A*0301): 0.265; Relative HLA MFI (100 uM) (HLA-A*0301): 1
5 | AVRHFPRIW [AW9] | 0.4343 | 0.7818 | – | – | –
6 | ERILSTYLGR [ER10] | – | – | – | – | Relative HLA MFI (10 uM) (HLA-A*0301): 0.09869; Relative HLA MFI (100 uM) (HLA-A*0301): 0.5827
7 | FPRIWLHGL [FL9 (Vpr)] | – | – | 0.2812 | 0.7264 | –
8 | FPVTPQVPL [FL9 (Nef)] | – | – | 0.348 | 0.9848 | –
9 | FPVTPQVPLR [FR10] | – | – | 0.1079 | 0.5897 | –
10 | FSPEVIPMF [FF9] | 0.003257 | 0.02714 | – | – | –
11 | GAFDLSFFL [GL9] | – | – | 0.1155 | 0.2918 | Relative HLA MFI (10 uM) [1, 2]: 0.2773; Relative HLA MFI (100 uM) [1, 2]: 0.6097; Relative HLA MFI (10 uM) [1, 3]: 0.3886; Relative HLA MFI (100 uM) [1, 3]: 0.8634; Relative HLA MFI (10 uM) [1, 4]: 0.06703; Relative HLA MFI (100 uM) [1, 4]: 0.1423; Relative HLA MFI (10 uM) [1, 5]: 0.6524; Relative HLA MFI (100 uM) [1, 5]: 1
12 | HMYISKKAK [HK9] | – | – | – | – | Relative HLA MFI (10 uM) (HLA-A*0301): 0.2644; Relative HLA MFI (100 uM) (HLA-A*0301): 0.8145
13 | HPRVSSEVHI [HI10] | – | – | 0.007599 | 0.6565 | –
14 | HPVHAGPIA [HA9] | – | – | 0.3541 | 0.8359 | Relative HLA MFI (10 uM) [1, 6]: 0.57; Relative HLA MFI (100 uM) [1, 6]: 0.8723
15 | HTQGYFPDWQ [HQ10] | 0.03149 | 0.01629 | – | – | –
16 | IATESIVIW [IAW9] | 0.4853 | 1 | – | – | –
17 | IPRRIRQGL [IL9] | – | – | 0.3754 | 1 | Relative HLA MFI (10 uM) [1, 6]: 0.6542; Relative HLA MFI (100 uM) [1, 6]: 0.68; Relative HLA MFI (10 uM) [1, 7]: 0.518; Relative HLA MFI (100 uM) [1, 7]: 0.8038

Row | Sequence | Relative HLA MFI (10 uM) (HLA-B*5701) | Relative HLA MFI (100 uM) (HLA-B*5701) | Relative HLA MFI (10 uM) (HLA-B*0702) | Relative HLA MFI (100 uM) (HLA-B*0702) | other results
18 | ISKKAKGWF [IF9] | 0.4093 | 0.557 | – | – | –
19 | IVLPEKDSW [IW9 (RT)] | 0.4821 | 0.7481 | – | – | –
20 | KAFSPEVI [KI8] | 0.06623 | 0.2215 | – | – | –
21 | KAIGTVLV [KV8] | 0.05212 | 0 | – | – | –
22 | KTKPPLPSVKK [KK11] | – | – | – | – | Relative HLA MFI (10 uM) (HLA-A*0301): 0.3455; Relative HLA MFI (100 uM) (HLA-A*0301): 0.9676
23 | LGHGVSIEW [LW9] | 0 | 0.005429 | – | – | –
24 | LTFGWCFKL [LL9] | 0 | 0 | – | – | –
25 | QAVRIIKILY [QY10] | 0 | 0 | – | – | –
26 | RGPGRAFVTI [RI10] | – | – | 0.02584 | 0.4954 | Relative HLA MFI (10 uM) [1, 2]: 0.001172; Relative HLA MFI (100 uM) [1, 2]: 0.4741; Relative HLA MFI (10 uM) [1, 8]: 0.4976; Relative HLA MFI (100 uM) [1, 8]: 0.7237
27 | RIRTWKSLVK [RK10] | – | – | – | – | Relative HLA MFI (10 uM) (HLA-A*0301): 0.3155; Relative HLA MFI (100 uM) (HLA-A*0301): 0.8607
28 | RPAEPVPLQL [RL10] | – | – | 0.196 | 0.848 | –
29 | SPAIFQSSM [SM9] | – | – | 0 | 0.1337 | –
30 | SPRTLNAWV [SV9] | – | – | 0 | 0.114 | –
31 | STTVKAACWW [SW10] | 0.3518 | 0.4995 | – | – | –
32 | TPGPGVRYPL [TL10] | – | – | 0 | 0.1231 | –
33 | YTPGPGIRY [YY9] | 0 | 0 | – | – | –
